Assay results as given in patent publication US10898548B2, “Modulators of protein tyrosine phosphatase and uses thereof” (LEUVAS THERAPEUTICS, priority 2015, dated 2021).
Marks after values point to notes of the source that are not given here.

Columns and labels:
human primary monocytes = test: static adhesion of fMLP-stimulated monocytes to fibrinogen; format: cell-based; design: fMLP-triggered static adhesion to fibrinogen: unit not given here; details: CTRL 100; for fMLP-triggered static adhesion to fibrinogen: monocytes; for fMLP-induced adhesion to fibrinogen: 40 μM P1 or P1-TKIP, 100 μM AG490, 200 μM WHI-P154, 1 hour, 50 nM fMLP 60 sec
Experimental: We investigated the functional effect of PTPRG activation on integrin activation and mediated adhesion by chemoattractants in human primary monocytes and PMNs in a static and flow adhesion assays. Briefly, human primary monocytes or polymorphonuclear cells were suspended at 5×10^6/ml in standard adhesion buffer. Adhesion assays were performed on 18-well glass slides coated with 1 mg/ml human fibrinogen or with 1 μg/ml human ICAM-1 in PBS; 20 μl of cell suspension were added to the coated wells and stimulated for 1 min at 37° C. with 5 μl of fMLP, 0.05 μM final concentration. After rapid washing, adherent cells were fixed in ice-cold 1.5% glutaraldehyde in PBS, and still images of adherent cells in 0.2 mm^2 fields were acquired al 20× phase contrast magnification, NA 0.40, with a charge-coupled device camera (ICD-42B; Ikegami) connected to an inverted microscope (IX50; Olympus). Image acquisition and computer-assisted enumeration of adherent cells were performed with ImageJ (National Institute of Health). […]
To evaluate whether JAK2 mediates chemoattractant-induced adhesion of human monocytes to beta-2 integrin substrates human monocytes were treated control buffer or P1 or with the three JAK inhibitors. Briefly, human monocytes were treated with buffer (CTRL=control), or 40 μM P1 or P1-TKIP peptides, 100 μM AG490 or 200 μM WHI-P154 for 1 hour at 37° C. and stimulated with 50 nM fMLP for 60 sec.; data are mean and standard deviation (SD) of 6 experiments in triplicate.

LFA-1 = LFA-1 high affinity state detection with 327C mAb; format: cell-based, human; details: CTRL 100; for LFA-1 high affinity state, percentages of fold-increase over control: 50 μM TAT peptides or 0.5 μM TAT-ICD, 1 hour, 50 nM fMLP 60 seconds; for LFA-1 high affinity state, percentages of fold increases over the control: 40 μM P1 or P1-TKIP, 100 μM AG490, 200 μM WHI-P154, 1 hour, 50 nM fMLP 60 sec; for LFA-1 high affinity state, mean fluorescence intensity relative to the fMLP-stimulated control: monocytes, 50 nM fMLP 1 min, concentration not given
Experimental: The ability of P1-WD to inhibit triggering of LFA-1 to a high-affinity state was assessed using a specific reporter monoclonal antibody 327C, which detects the fully extended LFA-1 conformational epitope corresponding to heterodimer high affinity state. Briefly, freshly isolated human monocytes were suspended in standard adhesion buffer at 2×10^6/ml were stimulated under stirring at 37° C. for 1 min with 50 nM fMLP in the presence of 10 µg/ml 327C mAb. After rapid washing, the cells were stained with FITC-conjugated secondary antibody and analyzed by cytofluorimetric quantification (Table 4). Data are mean fluorescence intensity measured by flow cytometry relative to the fMLP-stimulated control (CTRL) cells.
The ability of TAT-ICD to trigger the high affinity state of LFA-1 was tested as described in Example 2, Table 4 and the results are in Table 8. Human monocytes were treated with buffer (CTRL), 50 μM TAT peptides, or 0.5 μM TAT-ICD for 1 hour at 37° C. and stimulated with 50 nM fMLP for 60 seconds. Data are the percentages of fold-increase over control; mean values of 6 experiments
Briefly, LFA-1 high affinity state detection. Human monocytes were treated with buffer (CTRL=control), 40 μM P1 or P1-TKIP peptides, 100 μM AG490 or 200 μM WHI-P154 for 1 hour at 37° C. and stimulated with 50 nM fMLP for 60 sec. LFA-1 high affinity state conformer was detected by cytofluorimetric analysis with 327C antibody. Shown are percentages of fold increases over the control; mean values of 5 experiments.

JAK2 = target: T1, JAK2 (Homo sapiens, UniProt O60674); test: phospho-JAK2 Western Blot on monocytes; format: cell-based; details: 50 nM fMLP 180 sec
T1 construct: endogenous in cells; host or cells: human primary monocytes
Source text: JAK2 regulation by PTPRG as assessed through the high-throughput phospho-proteomics analysis evidenced that PTPRG activation (Example 4, Table 9 and 10) provides a useful example of the exploitation of this analysis system for identification of targets and unexpected indications/uses for known and novel agents that regulate the phoshoproteome. […] Furthermore, the capability of fMLP to trigger JAKs activation has never been observed. The results described in Example 4 unexpectedly implicate JAK2 de-phosphorylation by PTPRG as playing a role in the anti-adhesive role of PTPRG on monocytes. To test this system-generated hypothesis we first set out to define the role of JAK2 in fMLP-triggered rapid adhesion in monocytes. Time course experiments, either performed with ELISA assay or Western Blot. Briefly, purified human monocytes were treated with buffer (resting) or with 50 nM fMLP for the indicated times (Table 12), and the phosphorylation was assessed by p-Jak2 elisa and Western Blot analysis. The JAK2 activation was determined with Elisa Kit JAK2 (pYpY1007/1008) (Invitrogen). Briefly, cells were stimulated with agonist and lysed following manufacturer's protocol; levels of phospho-JAK2 were quantified (absorbance at 450 nm) with a micro-well plate reader (Victor™ X5 Multilabel Plate Reader, Perkin Elmer). For Western blot analysis, cells were lysed in ice-cold 1% Nonidet P-40 buffer, containing phosphatase inhibitors and complete protease inhibitor cocktail (Roche). Total cell lysates were quantified by Bradford assay (Bio-Rad). Equal amounts of total lysates or of isolated membranes (as described in Example 1) were subjected to 10% SDS-PAGE and then blotted. After incubation with anti-PTPRG, anti gp91^Phox, anti phospho-JAK2, anti JAK2 and HRP-linked secondary antibodies (GE Healthcare), immunoreactive bands were visualized by ECL detection (EMD Millipore). Intensities of band signals were quantified by densitometric analysis (Quantity One, Bio-Rad) by using ImageQuant Las4000. Data are mean value of three experiments; the relative ratio of the band intensity of phosphor-JAK2 was normalized to the level of JAK2 band intensities.
To evaluate whether JAK2 mediates fMLP-triggered rapid adhesion in human monocytes, we tested the capability of three JAK inhibitors, AG490, WHI-P154 and P1-TKIP peptide, to block adhesion triggering. Briefly, Monocytes were treated with buffer (resting and Control=CTRL), 100 μM AG490, 40 μM P1 or P1-TKIP peptides, or 200 μM WHI-P154 for 1 hour at 37° C. and stimulated with 50 nM fMLP for 180 sec. Cell lysates were probed with anti phospho-JAK2 and with anti JAK2. Western Blot immuoreactive band quantification; the relative ratio of the band intensity of phospho-JAK2 was normalized to the level of JAK2 band intensities; mean values of three experiments (Table 13).
The impact of TAT-ICD and P1-WD on JAK2 activation by chemoattractants was also evaluated by Western Blot analysis. Briefly, monocytes were treated with buffer (Resting, CTRL), 0.5 uM TAT-ICD, 50 μM TAT peptide, 50 μM P1-WD, P1 or P1-WD scrambled peptides for 1 hour at 37° C. and stimulated with 50 nM fMLP for 180 sec (the resting cells were not stimulated with fMLP). Total lysates were probed with anti phospho-JAK2 or with anti JAK. Western Blot immunoreactive bands were quantified and the relative ratio of the band intensity of phospho-JAK2 was normalized to the level of JAK2 band intensities; data are mean value and standard deviation of three experiments (Table 19).

[1] = 0.5 uM TAT-ICD, 50 μM TAT, 50 μM P1-WD, P1 or P1-WD scrambled, 1 hour, CTRL 50, Resting 8
[2] = 100 μM AG490, 40 μM P1 or P1-TKIP, 200 μM WHI-P154, 1 hour, CTRL 207.7, Resting 18.8

T1 sequence (O60674 whole entry): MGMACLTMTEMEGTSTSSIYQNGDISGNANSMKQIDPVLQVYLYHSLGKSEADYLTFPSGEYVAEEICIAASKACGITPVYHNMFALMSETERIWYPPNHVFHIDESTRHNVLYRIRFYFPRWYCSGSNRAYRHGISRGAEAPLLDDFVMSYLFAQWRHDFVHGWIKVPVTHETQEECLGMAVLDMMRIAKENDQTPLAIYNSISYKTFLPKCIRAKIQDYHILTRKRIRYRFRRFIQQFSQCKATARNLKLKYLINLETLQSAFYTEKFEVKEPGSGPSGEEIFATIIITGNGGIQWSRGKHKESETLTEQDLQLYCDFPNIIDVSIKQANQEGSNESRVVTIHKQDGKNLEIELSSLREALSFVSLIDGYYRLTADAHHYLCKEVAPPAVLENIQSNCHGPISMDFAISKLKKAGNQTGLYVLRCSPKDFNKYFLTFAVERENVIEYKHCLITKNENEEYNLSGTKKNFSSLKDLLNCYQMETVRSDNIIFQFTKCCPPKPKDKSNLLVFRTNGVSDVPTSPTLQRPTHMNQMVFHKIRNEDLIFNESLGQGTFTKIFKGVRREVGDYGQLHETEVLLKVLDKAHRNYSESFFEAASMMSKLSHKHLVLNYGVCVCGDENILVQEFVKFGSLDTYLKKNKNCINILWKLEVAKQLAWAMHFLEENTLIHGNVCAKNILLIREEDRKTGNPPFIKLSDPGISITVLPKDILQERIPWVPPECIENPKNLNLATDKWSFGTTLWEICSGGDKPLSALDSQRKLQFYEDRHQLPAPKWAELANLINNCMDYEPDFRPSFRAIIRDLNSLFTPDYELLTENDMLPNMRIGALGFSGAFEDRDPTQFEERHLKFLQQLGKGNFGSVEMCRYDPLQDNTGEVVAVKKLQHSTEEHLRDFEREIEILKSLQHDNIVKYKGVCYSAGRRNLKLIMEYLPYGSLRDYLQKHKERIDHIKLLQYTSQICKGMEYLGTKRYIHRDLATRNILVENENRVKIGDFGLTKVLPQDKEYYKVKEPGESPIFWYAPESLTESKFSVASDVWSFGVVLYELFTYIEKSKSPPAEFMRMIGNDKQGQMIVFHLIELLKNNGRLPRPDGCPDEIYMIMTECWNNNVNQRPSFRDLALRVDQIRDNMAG

Molecule | fMLP-triggered static adhesion to fibrinogen (human primary monocytes; 0.5 μM) | fMLP-triggered static adhesion to fibrinogen (human primary monocytes; 1 μM) | LFA-1 high affinity state, percentages of fold-increase over control (LFA-1) [%] | phospho-JAK2 band intensity normalized to JAK2, Western Blot (JAK2; [1]) | fMLP-induced adhesion to fibrinogen (human primary monocytes) [%] | LFA-1 high affinity state, percentages of fold increases over the control (LFA-1) [%] | LFA-1 high affinity state, mean fluorescence intensity relative to the fMLP-stimulated control (LFA-1) | phospho-JAK2 band intensity normalized to JAK2, Western Blot (JAK2; [2]) | further results
TAT-ICD: fusion recombinant protein SEQ ID 5: PTPRG intracellular domain aa 797-1445 fused to 13 aa TAT sequence | 20.1 | 14.0 | 24.3 | 15* |  |  |  |  | fMLP-triggered static adhesion to fibrinogen (human primary monocytes; 0.01 μM): 45.4; fMLP-triggered static adhesion to fibrinogen (human primary monocytes; 0.05 μM): 35.5; fMLP-triggered static adhesion to fibrinogen (human primary monocytes; 0.10 μM): 27.9
P1: Penetratin delivery peptide, 16 aa RQIKIWFQNRRMKWKK (SEQ ID 4), control [reference compound] |  |  |  | 49 | 110 | 90 | 91 | 111.4 | fMLP-triggered static adhesion to fibrinogen (human primary monocytes; control peptide, concentration not given): 94
P1-WD: fusion Trojan peptide SEQ ID 3: Penetratin, glycine, PTPRG wedge domain aa 831-856; RQIKIWFQNRRMKWKKGKQFVKHIGELYSNNQHGFSEDFEEVQ (listed as Homo sapiens) |  |  |  | 12* |  |  | 22 |  | fMLP-triggered static adhesion to fibrinogen (human primary monocytes; P1-WD 10 micromolar): 41; fMLP-triggered static adhesion to fibrinogen (human primary monocytes; P1-WD 25 micromolar): 18; fMLP-triggered static adhesion to fibrinogen (human primary monocytes; P1-WD 50 micromolar): 16
COc1cc2ncnc(Nc3ccc(O)c(Br)c3)c2cc1OC [WHI-P154] |  |  |  |  | 18 | 58 |  | 4.9 | 
N#C/C(=C/c1ccc(O)c(O)c1)C(=O)NCc1ccccc1 [AG490] |  |  |  |  | 32.8 | 66 |  | 9.2 | 
TAT (GRKKRRQRRRPPQ; listed as Homo sapiens) [reference compound] | 100 | 98 | 85.3 | 40 |  |  |  |  | 
